Assay results published in US11180474B2 (BRISTOL-MYERS SQUIBB COMPANY, priority 2016, dated 2021).

Key:
[1] = target: T1, human TLR7 (Homo sapiens, UniProt Q9NYK1); assay: TLR7 inhibition reporter assay (HEK-Blue cells, SEAP reporter, gardiquimod stimulation); assay type: cell-based; settings: HEK-Blue cells overexpressing human TLR7, gardiquimod 7.5 μM
T1 construct: host or cells: HEK-Blue cells
T1 sequence (Q9NYK1 27-1049): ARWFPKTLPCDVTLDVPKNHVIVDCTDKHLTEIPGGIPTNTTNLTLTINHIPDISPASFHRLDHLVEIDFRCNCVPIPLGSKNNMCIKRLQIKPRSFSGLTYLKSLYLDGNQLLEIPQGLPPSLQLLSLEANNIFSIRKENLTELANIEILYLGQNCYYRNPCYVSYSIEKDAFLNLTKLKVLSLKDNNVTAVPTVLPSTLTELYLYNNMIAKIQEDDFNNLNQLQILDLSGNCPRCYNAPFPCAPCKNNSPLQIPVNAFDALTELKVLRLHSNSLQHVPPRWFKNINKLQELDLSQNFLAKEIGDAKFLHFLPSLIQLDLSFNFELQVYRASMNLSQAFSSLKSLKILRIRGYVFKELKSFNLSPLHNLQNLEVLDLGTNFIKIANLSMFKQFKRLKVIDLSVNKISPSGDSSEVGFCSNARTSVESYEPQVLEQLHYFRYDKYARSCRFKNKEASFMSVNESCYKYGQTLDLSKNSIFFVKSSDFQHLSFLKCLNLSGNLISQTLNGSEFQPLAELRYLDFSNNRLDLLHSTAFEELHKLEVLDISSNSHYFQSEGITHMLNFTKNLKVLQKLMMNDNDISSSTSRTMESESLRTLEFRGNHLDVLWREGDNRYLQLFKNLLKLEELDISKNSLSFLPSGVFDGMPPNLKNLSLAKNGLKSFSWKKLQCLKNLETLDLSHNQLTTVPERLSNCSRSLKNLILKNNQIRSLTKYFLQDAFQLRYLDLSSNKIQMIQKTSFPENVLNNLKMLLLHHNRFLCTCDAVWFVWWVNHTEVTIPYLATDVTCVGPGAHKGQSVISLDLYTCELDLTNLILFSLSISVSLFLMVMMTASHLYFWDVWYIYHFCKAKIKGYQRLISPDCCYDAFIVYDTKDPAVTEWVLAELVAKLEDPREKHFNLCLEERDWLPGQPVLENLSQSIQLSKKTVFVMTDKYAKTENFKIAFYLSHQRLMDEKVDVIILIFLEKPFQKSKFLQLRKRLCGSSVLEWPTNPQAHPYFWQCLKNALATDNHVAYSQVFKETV
Method in brief: (§1)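 HEK-Blue reporter cells (15,000/well TLR7, 20,000 TLR8) exposed to compound over 0.05 nM–50 μM, agonist-stimulated (R848 for TLR8, gardiquimod for TLR7), 22 h at 37 °C, 5% CO2. SEAP read with HEK-Blue Detection; % inhibition relative to agonist-plus-DMSO and known-inhibitor controls.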

[2] = target: T2, human TLR8 (Homo sapiens, UniProt Q9NR97); assay: TLR8 inhibition reporter assay (HEK-Blue cells, SEAP reporter, R848 stimulation); assay type: cell-based; settings: HEK-Blue cells overexpressing human TLR8, R848 15.9 μM
T2 construct: host or cells: HEK-Blue cells
T2 sequence (Q9NR97 27-1041): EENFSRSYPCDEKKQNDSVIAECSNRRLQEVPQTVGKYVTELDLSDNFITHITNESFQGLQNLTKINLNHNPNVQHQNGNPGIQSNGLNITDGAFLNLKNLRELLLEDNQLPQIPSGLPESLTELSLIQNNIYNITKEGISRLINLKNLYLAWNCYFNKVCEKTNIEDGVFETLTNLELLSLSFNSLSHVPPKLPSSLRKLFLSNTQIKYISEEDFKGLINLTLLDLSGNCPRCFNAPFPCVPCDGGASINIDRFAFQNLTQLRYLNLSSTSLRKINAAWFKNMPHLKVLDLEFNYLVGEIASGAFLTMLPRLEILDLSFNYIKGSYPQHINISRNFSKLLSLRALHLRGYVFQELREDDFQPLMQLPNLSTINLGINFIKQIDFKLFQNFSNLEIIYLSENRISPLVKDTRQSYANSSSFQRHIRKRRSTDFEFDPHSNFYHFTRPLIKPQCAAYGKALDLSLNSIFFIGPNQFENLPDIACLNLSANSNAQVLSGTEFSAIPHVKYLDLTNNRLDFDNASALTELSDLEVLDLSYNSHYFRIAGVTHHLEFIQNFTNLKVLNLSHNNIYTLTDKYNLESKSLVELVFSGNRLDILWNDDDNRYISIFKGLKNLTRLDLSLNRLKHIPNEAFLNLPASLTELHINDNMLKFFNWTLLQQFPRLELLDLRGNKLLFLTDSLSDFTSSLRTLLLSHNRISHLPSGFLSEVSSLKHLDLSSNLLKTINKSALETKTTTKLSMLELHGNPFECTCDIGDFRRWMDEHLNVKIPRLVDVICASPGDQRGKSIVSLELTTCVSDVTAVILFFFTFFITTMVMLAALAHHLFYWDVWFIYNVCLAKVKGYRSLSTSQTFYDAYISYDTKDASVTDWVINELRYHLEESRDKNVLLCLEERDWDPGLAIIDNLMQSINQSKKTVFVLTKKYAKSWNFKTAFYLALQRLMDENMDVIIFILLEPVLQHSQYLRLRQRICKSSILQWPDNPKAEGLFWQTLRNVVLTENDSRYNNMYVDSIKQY
Method in brief: as §1

Row | Structure (SMILES) | IC50 [1] [nM] | IC50 [2] [nM]
1 | COc1ccc(-c2[nH]c3ccc(C4CCN(C(=O)CN5CCCC(C(=O)N(C)C)C5)CC4)cc3c2CC(F)(F)F)cc1OC (centres unmarked) [Example 419, 1-(2-(4-(2-(3,4-dimethoxyphenyl)-3-(2,2,2-trifluoroethyl)-1H-indol-5-yl)piperidin-1-yl)-2-oxoethyl)-N,N-dimethylpiperidine-3-carboxamide] | 31 | 47
2 | COc1ccc(-c2[nH]c3ccc(C4CCN(C5CCN(C6CCC(C)CC6)CC5)CC4)cc3c2C)cc1OC (centres unmarked) [Example 80, 2-(3,4-dimethoxyphenyl)-3-methyl-5-(1′-(4-methylcyclohexyl)-[1,4′-bipiperidin]-4-yl)-1H-indole] | 433 | 284
3 | CCCCCN1CCC(N2CCC(c3ccc4[nH]c(-c5ccc(OC)c(OC)c5)c(C)c4c3)CC2)CC1 [Example 55, 2-(3,4-dimethoxyphenyl)-3-methyl-5-(1′-pentyl-[1,4′-bipiperidin]-4-yl)-1H-indole] | 86 | 293
4 | COc1ccc(-c2[nH]c3ccc(C4CCN(C(=O)CN5CCC(N(C)C)CC5)CC4)cc3c2C)cc1OC [Example 407, 1-(4-(2-(3,4-dimethoxyphenyl)-3-methyl-1H-indol-5-yl)piperidin-1-yl)-2-(4-(dimethylamino)piperidin-1-yl)ethan-1-one] | 12300 | ≥ 50000
5 | COc1ccc(-c2[nH]c3ccc(C4CCN(C5CCN(C(C)C)CC5)CC4)cc3c2CC(F)(F)F)cc1OC [Example 412, 2-(3,4-dimethoxyphenyl)-5-(1′-isopropyl-[1,4′-bipiperidin]-4-yl)-3-(2,2,2-trifluoroethyl)-1H-indole] | 19 | 21
6 | C#CCCCCC(=O)NCCN1CCC(c2ccc3[nH]c(-c4ccc(OC)c(OC)c4)c(C(C)C)c3c2)CC1 [Example 411, N-(2-(4-(2-(3,4-dimethoxyphenyl)-3-isopropyl-1H-indol-5-yl)piperidin-1-yl)ethyl)hept-6-ynamide] | 63 | 36
7 | COc1ccc(-c2[nH]c3ccc(C4CCN(C(=O)CN(C)CCO)CC4)cc3c2C)cc1OC [Example 408, 1-(4-(2-(3,4-dimethoxyphenyl)-3-methyl-1H-indol-5-yl)piperidin-1-yl)-2-((2-hydroxyethyl)(methyl)amino)ethan-1-one] | 898 | 4770
8 | COc1ccc(-c2[nH]c3ccc(C4CCN(C5CCCN(CC(C)C)CC5)CC4)cc3c2C)cc1OC (centres unmarked) [Example 95, 2-(3,4-dimethoxyphenyl)-5-(1-(1-isobutylazepan-4-yl)piperidin-4-yl)-3-methyl-1H-indole] | 819 | 195
9 | COc1ccc(-c2[nH]c3ccc(C4CCN(C5CCN(Cc6cccn6C)CC5)CC4)cc3c2C)cc1OC [Example 78, 2-(3,4-dimethoxyphenyl)-3-methyl-5-(1′-((1-methyl-1H-pyrrol-2-yl)methyl)-[1,4′-bipiperidin]-4-yl)-1H-indole] | 223 | 143
10 | COc1ccc(-c2[nH]c3ccc(C4CCN(C5CCN(CC(O)CO)CC5)CC4)cc3c2C)cc1OC (centres unmarked) [Example 52, 3-(4-(2-(3,4-dimethoxyphenyl)-3-methyl-1H-indol-5-yl)-[1,4′-bipiperidin]-1′-yl)propane-1,2-diol] | 230 | 333
11 | COc1ccc(-c2[nH]c3ccc(C4CCN(C5CCCN(C)CC5)CC4)cc3c2C)cc1OC (centres unmarked) [Example 91, 2-(3,4-dimethoxyphenyl)-3-methyl-5-(1-(1-methylazepan-4-yl)piperidin-4-yl)-1H-indole] | 829 | 352
12 | COc1ccc(-c2[nH]c3ccc(C4CCN(C(=O)CN5CCCN(C)CC5)CC4)cc3c2C)cc1OC [Example 410, 1-(4-(2-(3,4-dimethoxyphenyl)-3-methyl-1H-indol-5-yl)piperidin-1-yl)-2-(4-methyl-1,4-diazepan-1-yl)ethan-1-one] | 3860 | 21100
13 | COc1ccc(-c2[nH]c3ccc(C4CCN(C(C)CO)CC4)cc3c2C)cc1OC (centres unmarked) [Example 43, 2-(4-(2-(3,4-dimethoxyphenyl)-3-methyl-1H-indol-5-yl)piperidin-1-yl)propan-1-ol] | 1160 | 926
14 | COc1ccc(-c2[nH]c3ccc(C4CCN(C5CCCN(C6CCCC6)CC5)CC4)cc3c2C)cc1OC (centres unmarked) [Example 93, 5-(1-(1-cyclopentylazepan-4-yl)piperidin-4-yl)-2-(3,4-dimethoxyphenyl)-3-methyl-1H-indole] | 903 | 302
15 | COc1ccc(-c2[nH]c3ccc(C4CCN(C5CCN(CC6CCCC6)CC5)CC4)cc3c2C)cc1OC [Example 65, 5-(1′-(cyclopentylmethyl)-[1,4′-bipiperidin]-4-yl)-2-(3,4-dimethoxyphenyl)-3-methyl-1H-indole] | 24000 | 41400
16 | COc1ccc(-c2[nH]c3ccc(C4CCN(C5CCN(CC6CC6)CC5)CC4)cc3c2C)cc1OC [Example 3, 5-(1′-(cyclopropylmethyl)-[1,4′-bipiperidin]-4-yl)-2-(3,4-dimethoxyphenyl)-3-methyl-1H-indole] | 339 | 216
17 | CCN(CC)C(=O)C1CCCN(CC(=O)N2CCC(c3ccc4[nH]c(-c5ccc(OC)c(OC)c5)c(CC(F)(F)F)c4c3)CC2)C1 (centres unmarked) [Example 420, 1-(2-(4-(2-(3,4-dimethoxyphenyl)-3-(2,2,2-trifluoroethyl)-1H-indol-5-yl)piperidin-1-yl)-2-oxoethyl)-N,N-diethylpiperidine-3-carboxamide] | 66 | 25
18 | COc1ccc(-c2[nH]c3ccc(C4CCN(C5CCN(CCC(F)(F)F)CC5)CC4)cc3c2C)cc1OC [Example 50, 2-(3,4-dimethoxyphenyl)-3-methyl-5-(1′-(3,3,3-trifluoropropyl)-[1,4′-bipiperidin]-4-yl)-1H-indole] | 1090 | 510
19 | COc1ccc(-c2[nH]c3ccc(C4CCN(C5CCN(C6CCCCC6)CC5)CC4)cc3c2C)cc1OC [Example 68, 5-(1′-cyclohexyl-[1,4′-bipiperidin]-4-yl)-2-(3,4-dimethoxyphenyl)-3-methyl-1H-indole] | 288 | 182
